Ends that are not written are not given here.
Columns and labels:
[1] = system: Integrin αvβ3 on DRG Sensory Neurons; assay: Fura-2 calcium imaging of periostin-induced calcium response in cultured DRG sensory neurons; type: cell-based, mouse
Method: DRGs were isolated from mice and dissociated in 1 mL of media containing 2.5 U/mL of dispase (Fisher Scientific, Hampton, New Hampshire, United States of America) and 2.5 mg/mL of collagenase (Fisher Scientific, Hampton, New Hampshire, United States of America). After dissociation, the cells were washed with complete media (DMEM (HiMedia Laboratories, Mumbai, India) with 10% FBS (Atlanta Biologicals, Flowery Branch, Georgia, United States of America) and 1% PenStrep (VWR International, Radnor, Pa., United States of America)) and pelleted at 1000 rpm for 15 minutes. Approximately 30 μL of the cell suspension was plated on 18 mm round glass slides with a coating of laminin (Sigma Aldrich, St. Louis, Miss., United States of America) and poly-L-lysine (Sigma Aldrich, St. Louis, Miss., United States of America) and incubated for 1.5 hours. Afterwards, 1 mL of complete media was added, and the cells were incubated overnight. All incubation steps were done at 37° C. with 5% CO2.
(§1) Before imaging, cells were incubated in 350 μL of complete media containing 1 μM Fura-2 AM (Enzo Life Sciences, Farmingdale, New York, United States of America) for 30 min at 37° C. with 5% CO2. During imaging, the cells were perfused with a buffer containing the following: 135 mM sodium chloride, 3.2 mM potassium chloride, 2.5 mM magnesium chloride, 2.8 mM calcium chloride, 667 μM monobasic sodium phosphate, 14.2 mM sodium bicarbonate, and 10.9 mM D-glucose (all from VWR International, Radnor, Pennsylvania, United States of America) with a pH between 7.00 and 7.40. The buffer and the holding plate were kept at 37° C. while imaging. Imaging data was collected on a TE200 inverted microscope using NIS Elements software (Nikon, Melville, New York, United States of America). Cells were exposed to 340 nm and 380 nm wavelengths for 100 ms and the A340/A380 ratio was calculated. Traces were analyzed using Excel and responses greater than 10% of the baseline were counted. Each data point in the scatter plots represented one coverslip.
(§2) Calcium Imaging: Calcium imaging will be performed on the DRG neurons as previously described (Pitake et al., 2018). Briefly, DRG neurons will be incubated for longer than 30 min in DMEM containing 1 μM of a fluorescent indicator Fura-2 AM (Enzo Life Sciences, Inc., Farmingdale, N.Y., United States of America). The neurons will be perfused in a standard bath solution containing 140 mM NaCl, 5 mM KCl, 2 mM MgCl2, 2 mM CaCl2, 10 mM Hepes and 10 mM D-glucose at pH 7.4 adjusted with NaOH. A calcium-free bath solution will be prepared by omitting 2 mM CaCl2 from the standard bath solution […] adding 5 mM EGTA. Fura-2 fluorescence excited at 340 and 380 nm and emission will be monitored at 510 nm with a digital CCD camera (Andor Clara DR-4152, Andor Technology Ltd, Belfast, United Kingdom). Data will be obtained by every 100 ms using an imaging software (NIS-Elements AR 4.13.04, Nikon Corporation, Tokyo, Japan) and analyzed by Microsoft Excel (Microsoft Corporation, Redmond, Wash., United States of America). Values of calcium responses will be normalized by dividing measured values (F) with average values of initial 5 frames (F0) of each cell and described as F/F0. In this study, changes in each response to an application with F/F0>0.1 will be regarded as positive. Cells not responding to 100 mM KCl, which is applied at the end of each experiment, will be regarded as non-neuronal cells and excluded from analysis.
Periostin (10 ug/ml) will be used to evoke calcium influx. This response has been optimized. The peptide inhibitors will be tested on DRG neurons to measure calcium influx in response to periostin. Data on calcium imaging will be presented by presenting each mouse±SEM. The IC50 value of the inhibitor will also be determined
Additional inhibitors were studied using the calcium imaging method described in Example 3. Briefly, the Fura2-AM calcium imaging method was performed on live dorsal root ganglia (DRG) neurons (ex vivo). […]

[2] = molecular target: T1, TRPV1 receptor (Mus musculus, UniProt Q704Y3); assay: Capsaicin-induced calcium response in DRG neurons (specificity control); type: cell-based; conditions: capsaicin 1 μM
T1 construct: endogenous in cells; host or cells: primary mouse dorsal root ganglion neurons
Method: as §1, §2
Additional inhibitors were studied using the calcium imaging method described in Example 3. Briefly, the Fura2-AM calcium imaging method was performed on live dorsal root ganglia (DRG) neurons (ex vivo). The DRG neurons are pre-incubated with the inhibitors P11 (Catalog #4744, Tocris Bioscience, Bristol, United Kingdom) and LM609 (Catalog #MAB1876, Millipore Sigma, Burlington, Mass., United States of America) or vehicle for 10 minutes and further stimulated with periostin or capsaicin in the presence of inhibitors. For Echistatin (Catalog #3202/100U, R&D Biosystems, Minneapolis, Minn., United States of America), MK-0429, and SB273005 (Catalog #S75-40, Selleck Chemicals Llc, Houston, Tex., United States of America), the DRG neurons were perfused with a normal Locke buffer vehicle or modified Locke buffer as described below. The values were normalized with KCl ([…]) to identify neuronal responses in all the calcium response data below.

[3] = system: murine keratinocyte cell line (Balb/MK2); assay: TSLP-induced periostin production in Balb/MK2 keratinocytes (ELISA); type: cell-based, mouse; conditions: for TSLP-induced periostin release: pre-exposed 4 hrs to 10 μmol/l inhibitor, then TSLP 10 ng/ml for 24 h
Method: The murine keratinocyte cell line (Balb/MK2) was used in this study to determine the periostin production induced by TSLP. Cells were cultured in EMEM medium according to the previously described method (Fukuyama et al., 2018). Confluent cells were exposed to TSLP at 1 or 10 ng/ml in FBS-free medium for 24 hrs. Inhibitory effect of the JAK2 inhibitor, SD 1008 and the STAT3 inhibitor, niclosamide, on TSLP-induced periostin production was also quantified using the murine Balb/MK2 keratinocyte cell line. Confluent cells were pre-exposed for 4 hrs to SD 1008 (10 μmol/l) or niclosamide (10 μmol/l), before being exposed to the TSLP at 10 ng/ml for a further 24 h. After TSLP exposure, periostin levels in cell supernatant were determined by ELISA according to the manufacturer's instructions.

[4] = system: NC/Nga mice sensitized with Dermatophagoides farinae HDM; assay: House dust mite (HDM) allergic itch model in NC/Nga mice; type: in vivo, mouse
Method: C57BL6 mice (Jackson Labs, Ellsworth, Maine, United States of America) were applied daily with MC903 (4 nmol) and vehicle (97% ethanol) after brief anesthesia. Skin thickness was measured using cutimeter as described (Fukuyama et al., 2015). Scratching behavior was video-monitored for 30 min on Day 1 and Day 7. On Day 7 skin was collected from vehicle and MC903 treated mice for the Western Blot (WB) as described below. NC/Nga mice (Charles River, Yokohama, Japan) were sensitized and challenged with house dust mite (HDM) allergen (Dermatophagoides farina, Greer, Lenoir, N.C., United States of Amercia) as described previously (Fukuyama et al., 2018). In short, for sensitization, 30 μl of HDM in mineral oil (10 mg/ml) was applied topically to the clipped back twice weekly supported by tape stripping until visible lesions had developed. After development of visible lesions mice were treated daily either with vehicle cream or betamethasone dipropionate (0.1% in lipoderm, n=8). […] Scratching behavior was video monitored for 60 min period immediately after HDM on day 42. For periostin measurement, mice were sacrificed for determination of periostin in skin on day 43. A portion of back skin tissue were snap-frozen in liquid nitrogen. Briefly, samples were homogenized under liquid nitrogen, and the homogenates were taken in 200 μL RPMI 1640 medium containing 1 mmol/L Pefabloc. The amount of periostin was determined using ELISA according to the manufacturer's instruction.

[5] = system: mouse cornea; assay: Eye wipes assay (corneal application); type: in vivo; conditions: wild-type mice, wiping measured for 1 minute
Method: All behavioral experiments were conducted during the light cycle at ambient temperature (23° C.). Behavioral assessment of scratching behavior was conducted as described previously (Mishra et al., 2011). Briefly, mice were injected intradermal into the nape of the neck with periostin (R&D), histamine, and chloroquine (all Millipore-Sigma) as previously described (Shimada and LaMotte, 2008). Compounds were diluted in PBS and the same was used as a vehicle. […] Additionally, cilengitide and periostin were combined together (mix) and injected i.d. into the dorsal neck of mouse. Scratching behavior was recorded for 30 minutes and data was presented in bouts per 30 minutes for mice. […] For eye wipes assay, periostin and capsaicin were dropped on mouse cornea and counted wipes for 1-minute. […] For dog's study, periostin (25 μg/25 μl) was injected in the dorsal neck (s.c.) and behavior was recorded and quantified for 30 minutes as “duration of pruritus manifestation” (DPM), as described earlier (Paps et al., 2016). […] When different raters separately scored a single tape, the ratings indicated high interrater reliability (coefficient of correlation, r>0.95). This method of itch readout in NHP has been used and accepted (Ko and Naughton, 2000). The behavior was recorded for 30 minutes duration and number of scratches quantified. […]

[6] = molecular target: integrin αvβ3 on mouse dorsal root ganglia (DRG) sensory neurons (mouse) (UniProt P43406); assay: cell-based or functional assay
Chain of integrin αvβ3 on mouse dorsal root ganglia (DRG) sensory neurons (mouse) (P43406 31-1044, chain 1 of 2): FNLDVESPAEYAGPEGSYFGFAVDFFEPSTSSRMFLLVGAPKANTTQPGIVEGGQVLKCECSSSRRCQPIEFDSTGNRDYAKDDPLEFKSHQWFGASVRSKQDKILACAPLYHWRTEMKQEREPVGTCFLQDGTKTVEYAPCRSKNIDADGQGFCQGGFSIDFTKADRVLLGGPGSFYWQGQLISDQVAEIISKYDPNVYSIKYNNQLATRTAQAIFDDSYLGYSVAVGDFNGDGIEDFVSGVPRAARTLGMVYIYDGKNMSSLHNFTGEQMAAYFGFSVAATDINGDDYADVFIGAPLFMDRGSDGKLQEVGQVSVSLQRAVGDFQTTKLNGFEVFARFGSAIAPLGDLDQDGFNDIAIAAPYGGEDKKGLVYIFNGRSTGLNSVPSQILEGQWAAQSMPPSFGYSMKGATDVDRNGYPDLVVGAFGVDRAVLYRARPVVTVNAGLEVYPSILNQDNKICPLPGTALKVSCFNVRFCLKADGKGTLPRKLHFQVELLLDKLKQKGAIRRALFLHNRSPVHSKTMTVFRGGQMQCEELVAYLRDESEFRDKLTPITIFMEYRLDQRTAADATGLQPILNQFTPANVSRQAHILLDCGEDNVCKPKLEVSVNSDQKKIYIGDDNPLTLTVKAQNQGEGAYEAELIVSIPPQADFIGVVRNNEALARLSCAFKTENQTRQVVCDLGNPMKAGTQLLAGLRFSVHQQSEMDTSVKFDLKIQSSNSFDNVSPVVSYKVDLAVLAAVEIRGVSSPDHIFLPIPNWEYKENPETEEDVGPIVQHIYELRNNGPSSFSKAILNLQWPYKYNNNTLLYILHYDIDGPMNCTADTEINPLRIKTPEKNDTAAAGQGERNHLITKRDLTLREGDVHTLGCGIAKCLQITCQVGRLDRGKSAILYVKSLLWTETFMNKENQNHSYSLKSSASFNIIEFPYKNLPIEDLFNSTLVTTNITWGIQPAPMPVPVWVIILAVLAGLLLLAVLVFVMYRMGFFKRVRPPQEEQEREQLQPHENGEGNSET
Chain of integrin αvβ3 on mouse dorsal root ganglia (DRG) sensory neurons (mouse) (O54890 26-787, chain 2 of 2, further chain): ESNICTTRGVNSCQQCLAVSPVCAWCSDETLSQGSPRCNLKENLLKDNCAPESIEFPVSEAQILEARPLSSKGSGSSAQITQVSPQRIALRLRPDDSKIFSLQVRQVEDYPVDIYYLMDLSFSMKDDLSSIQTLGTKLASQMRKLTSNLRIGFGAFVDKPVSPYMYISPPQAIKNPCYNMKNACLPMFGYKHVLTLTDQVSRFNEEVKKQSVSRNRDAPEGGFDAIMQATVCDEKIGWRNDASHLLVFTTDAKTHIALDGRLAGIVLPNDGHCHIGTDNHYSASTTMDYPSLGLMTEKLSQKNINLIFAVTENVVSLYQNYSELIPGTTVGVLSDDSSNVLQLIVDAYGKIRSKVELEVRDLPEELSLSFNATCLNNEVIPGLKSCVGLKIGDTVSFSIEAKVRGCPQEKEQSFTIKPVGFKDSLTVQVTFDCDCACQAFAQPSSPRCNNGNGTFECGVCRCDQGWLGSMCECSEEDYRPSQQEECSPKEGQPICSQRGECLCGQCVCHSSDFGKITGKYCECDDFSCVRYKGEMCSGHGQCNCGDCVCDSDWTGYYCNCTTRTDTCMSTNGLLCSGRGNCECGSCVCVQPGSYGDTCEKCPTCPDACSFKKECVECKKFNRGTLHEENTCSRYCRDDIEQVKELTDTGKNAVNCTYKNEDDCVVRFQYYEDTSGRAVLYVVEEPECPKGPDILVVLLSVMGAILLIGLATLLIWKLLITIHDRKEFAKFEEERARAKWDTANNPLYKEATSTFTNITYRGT

T1 sequence (Q704Y3 whole entry): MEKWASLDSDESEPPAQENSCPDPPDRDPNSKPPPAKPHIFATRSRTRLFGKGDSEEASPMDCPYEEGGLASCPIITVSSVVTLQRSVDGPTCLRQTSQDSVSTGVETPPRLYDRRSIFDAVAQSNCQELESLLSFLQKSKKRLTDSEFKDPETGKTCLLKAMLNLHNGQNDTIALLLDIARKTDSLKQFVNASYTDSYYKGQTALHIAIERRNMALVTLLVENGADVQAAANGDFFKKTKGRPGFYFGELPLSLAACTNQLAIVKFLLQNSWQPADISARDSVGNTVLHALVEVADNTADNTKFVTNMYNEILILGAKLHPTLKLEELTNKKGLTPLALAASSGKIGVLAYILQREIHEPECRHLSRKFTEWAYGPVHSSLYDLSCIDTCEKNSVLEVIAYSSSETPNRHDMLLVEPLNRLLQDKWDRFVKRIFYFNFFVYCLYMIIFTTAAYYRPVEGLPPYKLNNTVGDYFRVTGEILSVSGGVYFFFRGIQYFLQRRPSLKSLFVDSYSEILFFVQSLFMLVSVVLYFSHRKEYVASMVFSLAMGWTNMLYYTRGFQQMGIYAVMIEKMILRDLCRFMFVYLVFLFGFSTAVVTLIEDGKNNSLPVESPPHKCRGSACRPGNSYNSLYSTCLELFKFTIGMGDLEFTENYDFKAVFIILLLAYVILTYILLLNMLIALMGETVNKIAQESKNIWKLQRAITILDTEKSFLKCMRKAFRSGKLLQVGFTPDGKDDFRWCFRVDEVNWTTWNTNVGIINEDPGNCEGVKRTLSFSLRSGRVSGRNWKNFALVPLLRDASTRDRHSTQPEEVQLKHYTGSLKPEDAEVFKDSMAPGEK

Molecule: COc1ccc([C@H](CC(=O)O)N2CCN(CCCc3ccc4c(n3)NCCC4)C2=O)cn1 [MK-0429, (S)-3-(6-methoxypyridin-3-yl)-3-(2-oxo-3-(3-(5,6,7,8-tetrahydro-1,8-naphthyridin-2-yl)propyl)-imidazol-idin-1-yl)propanoic acid]
- periostin response (calcium influx) ([1]; higher concentration of MK-0429 (160 nM)): significant reduction
- capsaicin response ([2]; MK-0429 80 nM or 160 nM): no changes

Molecule: CNc1cccc(CCOc2ccc3c(c2)CN(CC(F)(F)F)C(=O)[C@H](CC(=O)O)C3)n1 [SB273005, (S)-2-(8-(2-(6-(methylamino)pyridin-2-yl)ethoxy)-3-oxo-2-(2,2,2-trifluoroethyl)-2,3,4,5-tetrahydro-1H-benzo-[c]azepin-4-yl)acetic acid]
- reduction of periostin-induced calcium response ([1]; SB273005 11 nM, trend, not statistically significant): about 40%
- periostin-induced calcium response ([1]; SB273005 higher concentration (20 nM)): significant reduction
- capsaicin response ([2]; SB273005 11 nM or 20 nM): No changes

Molecule: COC(=O)[C@@H]1[C@H](C(=O)OC)[C@H]2C=CC(=O)[C@@H]1N2Cc1ccccc1 [SD 1008]
- TSLP-induced periostin release [3]: blocked

Molecule: COc1ccc2c(c1)CC[C@@H]1[C@@H]2CC[C@]2(C)[C@@H](NCCCCCCN3C(=O)C=CC3=O)CC[C@@H]12 [U73122]
- periostin-induced calcium response ([1]; phospholipase C inhibitor U73122 1 μM): not affected

Molecule: CCC(=O)OCC(=O)[C@@]1(OC(=O)CC)[C@@H](C)C[C@H]2[C@@H]3CCC4=CC(=O)C=C[C@]4(C)[C@@]3(F)[C@@H](O)C[C@@]21C [betamethasone dipropionate]
- HDM-induced scratching ([4]; betamethasone dipropionate 0.1% in lipoderm topically, day 42): reduced
- periostin skin levels ([4]; betamethasone dipropionate 0.1% in lipoderm topically, skin ELISA day 43): reduced significantly
- body weight ([4]; daily betamethasone dipropionate 0.1%, application reduced to every other day on day 26): significant weight loss

Molecule: COc1cc(CNC(=O)CCCC/C=C/C(C)C)ccc1O [capsaicin]
- eye-wiping response to ocular application [5]: robust eye-wipe behavior

Molecule: O=C1OC2(c3ccccc31)c1ccc(O)c(O)c1Oc1c2ccc(O)c1O [gallein]
- periostin-induced calcium response ([1]; Gβγ blocker gallein 100 μM): not affected

Molecule: O=C(Nc1ccc([N+](=O)[O-])cc1Cl)c1cc(Cl)ccc1O [niclosamide]
- TSLP-induced periostin release [3]: blocked

Molecule: Echistatin
- reduction in periostin-induced calcium influx ([1]; Echistatin 4 nM): around 80%
- capsaicin response ([2]; in presence of Echistatin): remains unaffected

Molecule: His-Ser-Asp-Val-His-Lys-NH2 (HSDVHK-NH2) [P11]
- reduction in periostin-induced calcium influx ([1]; P11 50 μg/ml, 10 minutes pre-incubation): about 78%
- capsaicin response ([2]; P11 pre-treatment): no change

Molecule: Recombinant Mouse Periostin (from UniProt Q62009 24-811) (ligand)
- inward current in SST-positive DRG neurons in response to periostin (10 µg/ml), whole-cell patch clamp [6]: 58.4 pA

B1: TSLP: Th2 cytokine thymic stromal lymphopoietin, recombinant mouse (protein, UniProt Q9JIE6 20-140, looked up)
Thymic stromal lymphopoietin: YNFSNCNFTSITKIYCNIIFHDLTGDLKGAKFEQIEDCESKPACLLKIEYYTLNPIPGCPSLPDKTFARRTREALNDHCPGYPETERNDGTQEMAQEVQNICLNQTSQILRLWYSFMQSPE
- release of periostin from keratinocytes ([3]; TSLP 1 and 10 ng/ml, 24 hrs): induced the release of periostin

From US20220370545A1, “INTEGRIN RECEPTOR ALPHA V BETA 3 AND ITS LIGAND INVOLVED IN CHRONIC ITCH” (North Carolina State University, priority 2019, published 2022)
